We go through eleven compounds from ChEMBL document CHEMBL5390305, “Discovery of Ligands for TRIM58, a Novel Tissue-Selective E3 Ligase” (ACS Med Chem Lett, 2023).

The target of series [1] is T1, E3 ubiquitin-protein ligase TRIM58 (Homo sapiens, UniProt Q8NG06).
T1 sequence (Q8NG06 whole entry): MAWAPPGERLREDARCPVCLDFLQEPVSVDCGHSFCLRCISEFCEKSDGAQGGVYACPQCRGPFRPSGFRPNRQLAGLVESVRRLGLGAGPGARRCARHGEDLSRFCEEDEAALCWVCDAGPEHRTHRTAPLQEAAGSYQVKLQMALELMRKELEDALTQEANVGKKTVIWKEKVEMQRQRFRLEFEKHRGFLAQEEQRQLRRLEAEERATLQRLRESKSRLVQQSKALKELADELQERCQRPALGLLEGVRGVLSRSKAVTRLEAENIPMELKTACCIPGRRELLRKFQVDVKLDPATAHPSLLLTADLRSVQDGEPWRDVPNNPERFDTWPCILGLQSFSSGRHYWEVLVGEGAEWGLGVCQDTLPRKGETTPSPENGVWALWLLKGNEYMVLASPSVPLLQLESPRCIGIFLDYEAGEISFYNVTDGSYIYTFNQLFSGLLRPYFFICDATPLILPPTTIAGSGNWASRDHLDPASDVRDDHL
The series can be described thus: Displacement of Ac-DKSDLKAELERKK-C(BODIPY-FL-M)-RLAQIREEKKRKEE-NH2 peptide probe from TRIM58 (279 to 466 residue) (unknown origin) preincubated for 30 mins followed by probe addition by fluorescence polarization method. A general note: Polarisation of emitted light reports the rotation of a fluorescent probe.

Series [2] in a line: Lipophilicity, log D of the compound in octanol/buffer system at pH 7.4 by shake-flask based LC/MSMS analysis. In kind it is physicochemical.
Series [3] can be described thus: Apparent permeability across apical to basolateral side in low efflux MDCK cells. In kind it is ADME, cell-based, Canis lupus familiaris. The settings on record: dog.
Series [4] in a line: Solubility of the compound at pH 6.8 by high-throughput equilibrium solubility assay. To be noted: buffer. In kind it is physicochemical.
For series [5], the target named is T1, E3 ubiquitin-protein ligase TRIM58. The series can be described thus: Binding affinity against N-terminal 6His-tagged TRIM58 (251 to 466 residue) (unknown origin) expressed in Escherichia coli BL21 (DE3) by SPR assay. A general note: SPR reads the build-up and loss of mass on a sensor chip optically.

Structures are written as SMILES. In brackets after ≈: the same amount, converted by molar mass. Bounds are passed on as bounds.

As a reminder, the EC50 is the concentration that produces a half-maximal response. Low values mean greater potency, high ones weaker potency. Usually logD stands for the decadic logarithm of the distribution of all forms, ionised or not, between an organic phase and buffer at a given pH. Low values mean lower lipophilicity, high ones higher lipophilicity. A word on the Papp A→B: it is how fast a substance crosses the layer from the apical side. By thermodynamic solubility is commonly meant solubility found after equilibrating the solid with the medium. For `CNc1nc(NCC2CCNCC2)c2cc(C3CCCCC3)ccc2n1`, the EC50 in series [1] was determined as 6.6 µM. This compound also displayed a log distribution coefficient (logD) in series [2] of 0.5. In series [3], the Papp A→B is 1.1 ×10⁻⁶ cm/s. Besides, the thermodynamic solubility in series [4] is over 750 µM.
For the compound `CNc1nc(NC)c2cc(-c3ccccc3)ccc2n1`, a half-maximal response in series [1] (EC50) required 75 µM. The log distribution coefficient (logD) in series [2] was 1.7. The solubility (thermodynamic) in series [4] worked out at 100 µM (≈ 26.4 µg/mL).
In the case of `c1ccc(-c2ccc3nc(NCC4CC4)nc(NCC4CCNCC4)c3c2)cc1`, the EC50 in series [1] was 8.6 µM. Also, the logD in series [2] worked out at 1.1. Further, the apparent permeability from apical to basolateral (Papp A→B) in series [3] is 3.5 ×10⁻⁶ cm/s. Moreover, the thermodynamic solubility in series [4] stood at 20 µM (≈ 7.75 µg/mL).
In the same order, the values of `CNc1nc(OCC2CCNCC2)c2cc(-c3ccccc3)ccc2n1` are 74 µM, -0.5, 29 ×10⁻⁶ cm/s and over 750 µM.
`c1ccc2cc(-c3nn[nH]n3)c(NCC3CCNCC3)cc2c1` showed an EC50 in series [1] of over 100 µM.
`CNCCCNc1nc(NCC2CCNCC2)c2cc(-c3ccccc3)ccc2n1` gave an EC50 in series [1] of over 100 µM. The compound also came in with a logD in series [2] of 1.2. The Papp A→B in series [3] was determined as 0.6 ×10⁻⁶ cm/s. In series [4], this compound had a thermodynamic solubility of over 750 µM.
In the same order, the values of `CN(C)CCCNc1nc(NCCc2ccccc2)c2cc(-c3ccccc3)ccc2n1` are 12.7 µM, 3.3, 24 ×10⁻⁶ cm/s and 40 µM (≈ 17 µg/mL).
What is called Kd is the concentration at which binding is half-saturated. In series [1], `CN(C)CCCNc1nc(NCC2CCNCC2)c2cc(-c3ccccc3)ccc2n1` displayed a half-maximal effective concentration (EC50) of 5.3 µM. The logD in series [2] is under -1. In series [4], this compound yielded a thermodynamic solubility of over 1000 µM. For the same compound, the dissociation constant (Kd) in series [5] was determined as 24 µM.
`CNc1nc(NCC2CCNCC2)c2cc(-c3ccccc3)ccc2n1` gave a 50% effective concentration (EC50) in series [1] of 12 µM. In series [3], the Papp A→B was 1.6 ×10⁻⁶ cm/s. The same compound gave a solubility (thermodynamic) in series [4] of 80 µM (≈ 27.8 µg/mL).
For the compound `CNc1nc(NCC2CCNCC2)c2ccccc2n1`, the EC50 in series [1] is over 100 µM. The logD in series [2] was -0.8. In addition, the Papp A→B in series [3] amounted to 1.6 ×10⁻⁶ cm/s. Also, the solubility (thermodynamic) in series [4] was over 750 µM.
In the same order, the values of `CCCCCCNc1nc(NCCCN(C)C)nc2ccc(-c3ccccc3)cc12` are 7.4 µM, 4, 19 ×10⁻⁶ cm/s and 60 µM (≈ 24.3 µg/mL).
